Results taken from the NIST ThermoML archive (doi:10.1016/j.fluid.2014.09.014).
± gives the expanded uncertainty stated by the source.

Test: refractive index (other wavelength) (dimensionless); xn = mol fraction of the nth substance listed
Details: 318.15 K, 101 kPa, Liquid, Standard Abbe refractometry

CC(C)OC(C)C [diisopropyl ether] + CC(C)O
refractive index
Details | Wavelength=486.1 nm | Wavelength=546.1 nm | Wavelength=587.6 nm | Wavelength=589.3 nm | Wavelength=632.8 nm | Wavelength=644 nm | Wavelength=706.5 nm
x1 = 0.0277 | – | 1.36758 ± 0.00032 | 1.36611 ± 0.00032 | 1.36605 ± 0.00032 | 1.36479 ± 0.00032 | 1.36448 ± 0.00032 | 1.36305 ± 0.00032
x1 = 0.0507 | – | 1.36752 ± 0.00032 | 1.36604 ± 0.00032 | 1.36598 ± 0.00032 | 1.36472 ± 0.00032 | 1.36443 ± 0.00032 | 1.363 ± 0.00032
x1 = 0.051 | – | 1.36745 ± 0.00032 | 1.36598 ± 0.00032 | 1.36592 ± 0.00032 | 1.36464 ± 0.00032 | 1.36435 ± 0.00032 | 1.36292 ± 0.00032
x1 = 0.0717 | – | 1.36708 ± 0.00032 | 1.36563 ± 0.00032 | 1.36557 ± 0.00032 | 1.36428 ± 0.00032 | 1.36398 ± 0.00032 | 1.36256 ± 0.00032
x1 = 0.1528 | – | 1.36641 ± 0.00032 | 1.36495 ± 0.00032 | 1.36489 ± 0.00032 | 1.36364 ± 0.00032 | 1.36335 ± 0.00032 | 1.3619 ± 0.00032
x1 = 0.1553 | – | 1.36641 ± 0.00032 | 1.36495 ± 0.00032 | 1.36489 ± 0.00032 | 1.36364 ± 0.00032 | 1.36335 ± 0.00032 | 1.3619 ± 0.00032
x1 = 0.1938 | – | 1.36618 ± 0.00033 | 1.3647 ± 0.00033 | 1.36465 ± 0.00033 | 1.36338 ± 0.00033 | 1.36309 ± 0.00033 | 1.36166 ± 0.00033
x1 = 0.2029 | 1.36826 ± 0.00033 | 1.36546 ± 0.00033 | 1.36403 ± 0.00033 | 1.36398 ± 0.00033 | 1.36273 ± 0.00033 | 1.36243 ± 0.00033 | 1.361 ± 0.00033
x1 = 0.245 | 1.36775 ± 0.00033 | 1.36498 ± 0.00033 | 1.36354 ± 0.00033 | 1.36348 ± 0.00033 | 1.36223 ± 0.00033 | 1.36194 ± 0.00033 | 1.36053 ± 0.00033
x1 = 0.297 | 1.36682 ± 0.00034 | 1.36402 ± 0.00034 | 1.36259 ± 0.00034 | 1.36254 ± 0.00034 | 1.36131 ± 0.00034 | 1.36101 ± 0.00034 | 1.35958 ± 0.00034
x1 = 0.2973 | 1.36706 ± 0.00034 | 1.36427 ± 0.00034 | 1.36283 ± 0.00034 | 1.36278 ± 0.00034 | 1.36153 ± 0.00034 | 1.36123 ± 0.00034 | 1.35982 ± 0.00034
x1 = 0.3068 | 1.36679 ± 0.00034 | 1.36402 ± 0.00034 | 1.3626 ± 0.00034 | 1.36255 ± 0.00034 | 1.36129 ± 0.00034 | 1.36098 ± 0.00034 | 1.35954 ± 0.00034
x1 = 0.398 | 1.36558 ± 0.00035 | 1.36283 ± 0.00034 | 1.36139 ± 0.00034 | 1.36134 ± 0.00034 | 1.36008 ± 0.00034 | 1.35978 ± 0.00034 | 1.35836 ± 0.00034
x1 = 0.4609 | 1.36464 ± 0.00035 | 1.36184 ± 0.00035 | 1.36044 ± 0.00035 | 1.36036 ± 0.00035 | 1.35912 ± 0.00035 | 1.35883 ± 0.00035 | 1.3574 ± 0.00035
x1 = 0.5434 | 1.36363 ± 0.00036 | 1.36086 ± 0.00036 | 1.35943 ± 0.00036 | 1.35938 ± 0.00036 | 1.35814 ± 0.00036 | 1.35784 ± 0.00036 | 1.35643 ± 0.00036
x1 = 0.6032 | 1.36282 ± 0.00037 | 1.36011 ± 0.00037 | 1.35865 ± 0.00037 | 1.3586 ± 0.00037 | 1.35735 ± 0.00037 | 1.35707 ± 0.00037 | 1.35568 ± 0.00037
x1 = 0.6371 | 1.36247 ± 0.00038 | 1.35971 ± 0.00038 | 1.35829 ± 0.00038 | 1.35824 ± 0.00038 | 1.35701 ± 0.00038 | 1.35671 ± 0.00038 | 1.35531 ± 0.00038
x1 = 0.701 | 1.36166 ± 0.00039 | 1.35892 ± 0.00039 | 1.35749 ± 0.00039 | 1.35743 ± 0.00039 | 1.35619 ± 0.00039 | 1.35591 ± 0.00039 | 1.35452 ± 0.00038
x1 = 0.754 | 1.36123 ± 0.00039 | 1.35847 ± 0.00039 | 1.35706 ± 0.00039 | 1.357 ± 0.00039 | 1.35577 ± 0.00039 | 1.35547 ± 0.00039 | 1.35407 ± 0.00039
x1 = 0.791 | 1.3608 ± 0.0004 | 1.35802 ± 0.0004 | 1.35663 ± 0.0004 | 1.35658 ± 0.0004 | 1.35537 ± 0.0004 | 1.35507 ± 0.0004 | 1.35364 ± 0.0004
x1 = 0.8296 | 1.36034 ± 0.00041 | 1.3576 ± 0.00041 | 1.35619 ± 0.00041 | 1.35614 ± 0.00041 | 1.35491 ± 0.00041 | 1.35461 ± 0.00041 | 1.3532 ± 0.00041
x1 = 0.8864 | 1.36022 ± 0.00042 | 1.35745 ± 0.00042 | 1.35605 ± 0.00042 | 1.35599 ± 0.00042 | 1.35478 ± 0.00042 | 1.35448 ± 0.00042 | 1.35309 ± 0.00042
x1 = 0.8903 | 1.35967 ± 0.00042 | 1.35689 ± 0.00042 | 1.35548 ± 0.00042 | 1.35543 ± 0.00042 | 1.35421 ± 0.00042 | 1.35391 ± 0.00042 | 1.35251 ± 0.00042
x1 = 0.9113 | 1.3594 ± 0.00042 | 1.35663 ± 0.00042 | 1.35521 ± 0.00042 | 1.35515 ± 0.00042 | 1.35395 ± 0.00042 | 1.35366 ± 0.00042 | 1.35225 ± 0.00042
x1 = 0.9547 | 1.35891 ± 0.00043 | 1.35618 ± 0.00043 | 1.35475 ± 0.00043 | 1.35469 ± 0.00043 | 1.35346 ± 0.00043 | 1.35317 ± 0.00043 | 1.3518 ± 0.00043
x1 = 0.973 | 1.35854 ± 0.00043 | 1.3558 ± 0.00043 | 1.35439 ± 0.00043 | 1.35433 ± 0.00043 | 1.35311 ± 0.00043 | 1.35281 ± 0.00043 | 1.35143 ± 0.00043
x1 = 0.9771 | 1.35849 ± 0.00043 | 1.35575 ± 0.00043 | 1.35433 ± 0.00043 | 1.35427 ± 0.00043 | 1.35304 ± 0.00043 | 1.35276 ± 0.00043 | 1.35139 ± 0.00043
x1 = 1 | 1.35832 ± 0.00044 | 1.35556 ± 0.00044 | 1.35416 ± 0.00044 | 1.35411 ± 0.00044 | 1.3529 ± 0.00043 | 1.35259 ± 0.00044 | 1.3512 ± 0.00043
